In PMC2994747, “Molecular Characterization of c-Abl/c-Src Kinase Inhibitors Targeted against Murine Tumour Progenitor Cells that Express Stem Cell Markers” (PLoS ONE, 2010):
Where two headings read alike, the source gives them in different places.

Tests used:
[1] = test system: A2C12; assay: MTS cell viability assay; format: cell-based, mouse
Experimental: (§1) Three human and eleven murine cancer cell lines were used. The human NSCLC cell line A549 (ACC 107) and the human colorectal carcinoma cell line CaCo2 (ACC 169) were obtained from Deutsche Sammlung von Mikroorganismen und Zellkulturen (DSMZ, Braunschweig, Germany). The human hepatocellular carcinoma cell line HepG2 (HB-8065) was obtained from American Type Culture Collection (Manassas, VA, USA). The 11 murine NSCLC cell lines were established as described recently. Cells were grown in monolayer cultures in DMEM containing 10% foetal calf serum, 4 mmol/l L-glutamine and 2% Penicillin/Streptomycin at 37°C in a humidified atmosphere of 95% air and 5% CO2.
(§2) Cell culture viability was monitored by CellTiter96® AQueous One Solution Cell Proliferation Assay (Promega GmbH, Mannheim, Germany). The cells were seeded in triplicates in 96-well microtitre plates and treated with the dual kinase inhibitors or vehicle (0.2% DMSO). After 24 h or 96 h of treatment the MTS tetrazolium reagent was added to the cells and incubated for 1 h. Absorbance at 490 nm was assayed with a Victor3 Wallac 1420 Multilabel counter (PerkinElmer, Waltham, MA, USA).

[2] = test system: GammaA3; assay: MTS cell viability assay; format: cell-based, mouse
Experimental: as §1, §2

[3] = test system: BetaD5; assay: MTS cell viability assay; format: cell-based, mouse
Experimental: as §1, §2

[4] = test system: GammaD12; assay: MTS cell viability assay; format: cell-based, mouse; conditions: MTS
Experimental: as §1, §2

[5] = test system: A549; assay: Cell cycle analysis by flow cytometry; format: cell-based, human; conditions: IC50 concentration, 96 h
Experimental: (§3) CycleTEST™ PLUS DNA Reagent Kit (Becton Dickinson GmbH, Heidelberg, Germany) for cell cycle analysis was used, according to the instructions of the manufacturer. Briefly, the cells were harvested with trypsin, washed with PBS, and resuspended in CycleTEST Buffer. The cells were centrifuged and resuspended in solution A. After incubation for 10 min at room temperature, solution B was added and incubated. After adding solution C, the samples were incubated at 4°C protected from light. The samples were stored on ice and protected from light until analysis by FACScan flow cytometer (Becton Dickinson GmbH, Heidelberg, Germany).

[6] = test system: CaCo2; assay: Cell cycle analysis by flow cytometry; format: cell-based, human; conditions: IC50 concentration, 96 h
Experimental: as §3

[7] = test system: A549; assay: MTS cell viability assay; format: cell-based, human
Experimental: as §1, §2

[8] = test system: CaCo2; assay: MTS cell viability assay; format: cell-based, human
Experimental: as §1, §2

[9] = test system: HepG2; assay: MTS cell viability assay; format: cell-based, human
Experimental: as §1, §2

[10] = target: T1, c-Abl (Homo sapiens, UniProt P00519); assay: Abl filter-binding kinase assay (Abtide, [γ-32P]ATP); format: biochemical; conditions: isolated Abl; calculated from ID50, ATP-competitive; E0 0.005, S0 0.012 µM
T1 construct: His tag; purchased Upstate (Lake Placid, NY, USA)
T1 sequence (P00519 whole entry): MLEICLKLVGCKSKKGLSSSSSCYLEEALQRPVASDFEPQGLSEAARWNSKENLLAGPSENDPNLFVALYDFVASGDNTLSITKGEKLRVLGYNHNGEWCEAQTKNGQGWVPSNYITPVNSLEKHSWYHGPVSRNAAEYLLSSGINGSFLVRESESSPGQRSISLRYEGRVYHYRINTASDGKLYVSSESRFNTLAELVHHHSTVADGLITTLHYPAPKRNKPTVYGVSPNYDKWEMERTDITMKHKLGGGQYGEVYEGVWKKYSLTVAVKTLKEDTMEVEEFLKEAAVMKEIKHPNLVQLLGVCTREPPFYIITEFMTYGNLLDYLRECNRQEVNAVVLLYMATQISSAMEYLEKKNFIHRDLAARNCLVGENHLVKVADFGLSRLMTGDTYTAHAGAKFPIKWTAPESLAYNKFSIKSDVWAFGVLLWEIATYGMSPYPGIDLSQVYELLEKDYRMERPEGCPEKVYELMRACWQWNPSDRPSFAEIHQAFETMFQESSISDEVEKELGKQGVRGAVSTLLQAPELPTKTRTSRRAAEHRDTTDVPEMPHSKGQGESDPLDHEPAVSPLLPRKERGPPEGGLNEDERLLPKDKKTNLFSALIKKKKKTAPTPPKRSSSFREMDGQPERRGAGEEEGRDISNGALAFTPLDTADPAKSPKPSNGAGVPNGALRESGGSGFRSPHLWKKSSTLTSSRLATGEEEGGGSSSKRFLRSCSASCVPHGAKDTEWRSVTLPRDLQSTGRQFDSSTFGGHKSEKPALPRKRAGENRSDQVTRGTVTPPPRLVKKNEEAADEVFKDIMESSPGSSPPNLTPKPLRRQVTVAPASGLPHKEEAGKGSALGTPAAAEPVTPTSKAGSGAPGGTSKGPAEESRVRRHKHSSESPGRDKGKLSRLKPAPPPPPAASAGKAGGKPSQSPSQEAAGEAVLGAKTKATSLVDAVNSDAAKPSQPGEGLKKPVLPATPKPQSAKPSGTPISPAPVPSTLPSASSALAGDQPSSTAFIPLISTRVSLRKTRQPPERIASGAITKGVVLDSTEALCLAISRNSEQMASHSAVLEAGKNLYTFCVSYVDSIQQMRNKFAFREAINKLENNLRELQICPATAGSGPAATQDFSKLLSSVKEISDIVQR
Experimental: Baculovirus-produced recombinant purified his-tagged active against human Src and Abl were purchased from Upstate (Lake Placid, NY, USA).
Src activity was measured in a filter-binding assay using the Src Assay Kit (Upstate, Lake Placid, NY, USA), according to the manufacturer's protocol, using the specific Src peptide substrate [[…]] in the presence of 0.125 pmol of Src and 0.160 pmol of [γ-^32P]ATP. Abl activity was measured in a filter-binding assay using an Abl specific peptide substrate (Abtide, Upstate). Reaction conditions were (in a final volume of 10 µl): 25 mM Tris-HCl pH 7.5, 1 mM DTT, 0.012 µM [γ-^32P]ATP, 0.022 µM c-Abl. Reactions were incubated 10 min at 30°C.The samples (9 µl) were spotted on paper cellulose filters which were washed according to the manufacturer's protocol. Filter-bound radioactivity was measured by liquid scintillation with a Microbeta-Trilux apparatus (PerkinElmer, Waltham, MA, USA).
The ID50 were converted to Ki according to a competitive mechanism with respect to the substrate ATP. […] Since (i) the ATP concentration was limiting, i.e., [ATP], Km(ATP), and (ii) the enzyme concentration was not negligible with respect to the ATP concentration, the classical Cheng-Prusoff relationship was not applicable. Consequently, Ki values were calculated according to [drawing 3] (2) where S0 is the concentration of the competing substrate (ATP) and E0 is the concentration of the enzyme. Each experiment was done in triplicate and mean values were used for the interpolation. Curve fitting was performed with the program GraphPad Prism.

[11] = test system: A2C12; assay: Cell cycle analysis by flow cytometry; format: cell-based, mouse; conditions: IC50 concentration, 96 h
Experimental: as §3

[12] = test system: GammaA3; assay: Cell cycle analysis by flow cytometry; format: cell-based, mouse; conditions: IC50 concentration, 96 h
Experimental: as §3

[13] = test system: GammaD12; assay: Cell cycle analysis by flow cytometry; format: cell-based, mouse; conditions: IC50 concentration, 96 h
Experimental: as §3

[14] = test system: HepG2; assay: Cell cycle analysis by flow cytometry; format: cell-based, human; conditions: IC50 concentration, 96 h
Experimental: as §3

[15] = test system: BetaD5; assay: Cell cycle analysis by flow cytometry; format: cell-based, mouse; conditions: IC50 concentration, 96 h
Experimental: as §3

[16] = 24 h, read-out: Calculated IC50 after single treatment for 24 h
[17] = 96 h, read-out: Calculated IC50 after daily treatment for 96 h

With `CSc1nc(NCCc2ccccc2)c2cnn(C=Cc3ccccc3)c2n1` [Si40] the IC50 [1, 16] was over 100 µM, the IC50 [1, 17] was 7 ± 0.5 µM and the IC50 [2, 16] was over 100 µM. It also gave an IC50 [2, 17] of over 20 µM, an IC50 [3, 16] of 43.6 ± 3.6 µM and an IC50 [3, 17] of 12.9 ± 2.9 µM. For the same molecule, the IC50 [4, 16] was 26 ± 3 µM, the IC50 [4, 17] was 12.7 ± 0.4 µM and the “Cells in G1 phase” value [5] was 81%. For the same molecule, the “Cells in G2 phase” value [5] was 3.8%, the “Cells in S phase” value [5] was 15.2% and the “Cells in G1 phase” value [6] was 52.5%. The “Cells in G2 phase” value [6] was 10.3%, the “Cells in S phase” value [6] was 37.2% and the IC50 [7, 16] was over 100 µM. It also gave an IC50 [7, 17] of 16.2 ± 2.1 µM, an IC50 [8, 16] of over 100 µM and an IC50 [8, 17] of 0.4 ± 0.1 µM. For the same molecule, the IC50 [9, 16] was over 100 µM, the Ki [10] was 0.45 µM and the “Cells in G1 phase” value [11] was 75.7%. For the same molecule, the “Cells in G2 phase” value [11] was 9.8%, the “Cells in S phase” value [11] was 14.6% and the “Cells in G1 phase” value [12] was 53.4%. The “Cells in G2 phase” value [12] was 15.4%, the “Cells in S phase” value [12] was 31.3% and the “Cells in G1 phase” value [13] was 28.4%. The “Cells in G2 phase” value [13] was 2.7% and the “Cells in S phase” value [13] was 68.9%.

`BrC(Cn1ncc2c(N3CCOCC3)ncnc21)c1ccccc1` (stereo not drawn) [Si51] was tested, and the IC50 [1, 16] was over 100 µM, the IC50 [1, 17] was over 20 µM and the IC50 [2, 16] was over 100 µM. The IC50 [2, 17] was over 20 µM, the IC50 [3, 16] was over 100 µM and the IC50 [3, 17] was over 20 µM. The IC50 [4, 16] was over 100 µM, the IC50 [4, 17] was over 20 µM and the IC50 [7, 16] was over 100 µM. For the same molecule, the IC50 [7, 17] was over 20 µM, the IC50 [8, 16] was over 100 µM and the IC50 [8, 17] was over 20 µM. For the same molecule, the IC50 [9, 16] was over 100 µM and the Ki [10] was 0.22 µM.

For `CSc1nc(Nc2cccc(F)c2)c2cnn(CC(Cl)c3ccc(F)cc3)c2n1` (stereo not drawn) [Si93], the IC50 [1, 16] was 16.9 ± 0.9 µM, the IC50 [1, 17] was 6.5 ± 0.3 µM and the IC50 [2, 16] was 15.6 ± 0.6 µM. The IC50 [2, 17] was 7.7 ± 0.4 µM, the IC50 [3, 16] was 13.8 ± 2 µM and the IC50 [3, 17] was 10.4 ± 0.5 µM. For the same molecule, the IC50 [4, 16] was 11.8 ± 0.4 µM, the IC50 [4, 17] was 8.8 ± 0.3 µM and the “Cells in G1 phase” value [5] was 72.6%. The “Cells in G2 phase” value [5] was 5%, the “Cells in S phase” value [5] was 22.4% and the “Cells in G1 phase” value [6] was 59.3%. The “Cells in G2 phase” value [6] was 9.5%, the “Cells in S phase” value [6] was 31.1% and the “Cells in G1 phase” value [14] was 55%. For the same molecule, the “Cells in G2 phase” value [14] was 9.6%, the “Cells in S phase” value [14] was 35.4% and the IC50 [7, 16] was 21.5 ± 4.2 µM. The IC50 [7, 17] was 6.5 ± 0.2 µM, the IC50 [8, 16] was 65.6 ± 2.7 µM and the IC50 [8, 17] was 6.4 ± 0.1 µM. The IC50 [9, 16] was 65.6 ± 2.7 µM, the IC50 [9, 17] was 19.1 ± 1.6 µM and the “Cells in G1 phase” value [11] was 56.8%. For the same molecule, the “Cells in G2 phase” value [11] was 14.6%, the “Cells in S phase” value [11] was 28.6% and the “Cells in G1 phase” value [12] was 76.1%. The “Cells in G2 phase” value [12] was 16.6%, the “Cells in S phase” value [12] was 7.2% and the “Cells in G1 phase” value [15] was 42.4%. For the same molecule, the “Cells in G2 phase” value [15] was 25.2%, the “Cells in S phase” value [15] was 22.1% and the “Cells in G1 phase” value [13] was 39.5%. The “Cells in G2 phase” value [13] was 14.7% and the “Cells in S phase” value [13] was 45.8%.
